Reference: article PMC6982951, “The N’-Substituted Derivatives of 5-Chloro-3-Methylisothiazole-4-Carboxylic Acid Hydrazide with Antiproliferative Activity” (Molecules, 2019)
Where “and” joins values, the source holds several entries; their conditions need not be identical. Equal entries are not always repeated. Entries after “also recorded” stand apart in the source; their conditions may differ. Where two headings read alike, the source gives them in different places.

Columns and labels:
[1] = system: MV4-11 (human biphenotypic B cell myelomonocytic leukemia); assay: MTT antiproliferative assay, 72 h exposure; format: cell-based; settings: for IC50 / IC50 ± SD: MV4-11, MTT, 72 h, n.a. = no activity in a concentration of 1–80 μg/mL; for antiproliferative activity (in words): MV4-11 leukemia cells; for inhibition at 80 µg/mL: MV4-11, compound concentration 80 μg/mL, read-out: inhibition of cell proliferation
Source text: (§1) Established in vitro, human cell lines MV4-11 (human biphenotypic B myelomonocytic leukemia), MCF-7 (breast cancer), LoVo (colon cancer), LoVo/DX (colon cancer drug resistant), and MCF-10A (normal breast epithelial) were used. The lines were obtained from the American Type Culture Collection (lines MV4-11, LoVo, LoVo/DX, MCF-10A; Rockville, MD, USA) or from the European Collection of Authenticated Cell Cultures (line MCF-7) and are being maintained at the Hirszfeld Institute of Immunology and Experimental Therapy PAS, Wroclaw, Poland.
(§2) MV4-11 cells were cultured in the RPMI 1640 medium (HIIET PAS, Poland) supplemented with 1.0 mM sodium pyruvate, 2 mM L-glutamine and 10% FBS (all from Sigma Aldrich, Steinheim, Germany), LoVo cells were cultured in the F-12K medium (Life Technologies, Carlsbad, CA, United States) supplemented with 10% FBS (GE Healthcare, Chicago, IL, USA), and LoVo/DX cells were cultured in the mixture of RPMI 1640+OptiMEM (1:1) medium (HIIET PAS) supplemented with 5% FBS (GE Healthcare, Chicago, IL, USA), 2 mM L-glutamine, 1.0 mM sodium pyruvate (all from Sigma Aldrich, Steinheim, Germany) and 0.1 µg/mL doxorubicin chloride (Accord).
(§3) Test solutions of the compounds tested (50 mM) were prepared by dissolving the substances in DMSO (Sigma Aldrich). Afterwards, the tested compounds were diluted in a culture medium to reach the final concentrations at the range of 1-80 μg/mL (250, 125, 25 and 5 μM).
(§4) Twenty-four hours prior to the addition of the tested compounds, the cells were plated in 96-well plates (Sarstedt, Germany) at a density of 1 × 10^4 or 0.75 × 10^4 (MCF-7) cells per well. The assay was performed after 72 h of exposure to varying concentrations of the tested agents. The in vitro cytotoxic effect of all agents was examined using the MTT (MV4-11) or SRB assay. The results were calculated as IC50 (inhibitory concentration 50%) the concentration of tested agent, which is cytotoxic for 50% of the cancer cells. Each compound in each concentration was tested in triplicate in a single experiment, which was repeated 3–4 times.
This technique was applied for cells growing in suspension culture. An assay was performed after 72 h exposure to varying concentrations of the tested agents. For the last 4 h of incubation, 20 µL of MTT solution was added to each well (MTT: 3-(4,5-dimethylthiazol-2-yl)-2,5-diphenyl tetrazolium bromide; stock solution: 5 mg/mL, Sigma Aldrich). When the incubation time was completed, 80 µL of the lysing mixture was added to each well (lysing mixture: 225 mL dimethylformamide, POCh, Gliwice, Poland, 67.5 g sodium dodecyl sulfate, Sigma Aldrich, and 275 mL of distilled water). After 24 h, when formazan crystals had been dissolved, the optical densities of the samples were read on Synergy H4 photometer (BioTek Instruments, USA) at 570 nm wavelength. The background optical density was measured in the wells filled with culture medium, without the cells.

[2] = system: MCF-7 (breast adenocarcinoma); assay: SRB antiproliferative assay, 72 h exposure; format: cell-based, human; settings: MCF-7, SRB; for IC50: read-out: IC50 ± SD MCF-7
Source text: as §1
(§5) MCF-7 cells were cultured in the Eagle’s medium (HIIET PAS, Poland) supplemented with 10% FBS, 8 µg/mL insulin, 2 mM L-glutamine and 1% MEM-non essential amino acid solution 100X (all from Sigma Aldrich, Steinheim, Germany). MCF-10A cells were cultured in the HAM’S F-12 with L-glutamine medium (Corning) supplemented with 10% Hors Serum (Gibco), 10 µg/mL insulin, 0.5 µg/mL hydrocortisone, 20 ng/mL EGFh and 0.05 mg/mL Cholera Toxin from Vibrio cholerae (all from Sigma Aldrich, Steinheim, Germany). All culture mediums were supplemented with 100 units/mL penicillin (Polfa Tarchomin S.A. Poland), and 100 µg/mL streptomycin (Sigma Aldrich). All cell lines were grown at 37 °C with 5% CO2 humidified atmosphere.
as §3, §4
(§6) This technique was applied for the cytotoxicity screening against cells growing in adherent culture. The details of this technique were described by Skehan et. al.. The cytotoxicity assay was performed after 72 h exposure of the cultured cells to varying concentrations of the tested agents. The cells attached to the plastic were fixed by gently layering cold 50% TCA (trichloroacetic acid, Sigma Aldrich) on the top of the culture medium in each well. The plates were incubated at 4 °C for 1 h and then washed five times with tap water. The cellular material fixed with TCA was stained with 0.1% sulforhodamine B (SRB, Sigma Aldrich) dissolved in 1% acetic acid (POCh) for 30 min. Unbound dye was removed by rinsing (4×) with 1% acetic acid. The protein-bound dye was extracted with 10 mM unbuffered Tris base (Sigma Aldrich) for determination of optical density (at 540 nm) on Synergy H4 photometer (BioTek Instruments). The background optical density was measured in the wells filled with culture medium, without the cells.

[3] = system: MCF-10A (normal non-tumorigenic epithelial cell line derived from mammary gland); assay: SRB cytotoxicity assay, 72 h exposure; format: cell-based, human; settings: for IC50: read-out: IC50 ± SD MCF-10A; for cytotoxicity against normal MCF-10A cells relative to cancer MCF-7 cells: MCF-10A versus MCF-7
Source text: as §1, §5, §3, §4, §6

[4] = system: LoVo (human colon adenocarcinoma, sensitive); assay: SRB antiproliferative assay, 72 h exposure; format: cell-based; settings: for IC50: read-out: IC50 ± SD LoVo
Source text: as §1, §2, §3, §4, §6

[5] = system: LoVo/DX (human colon adenocarcinoma, resistant to doxorubicin); assay: SRB antiproliferative assay, 72 h exposure; resistance index; format: cell-based; settings: for RI (resistance index): IC50 against LoVo/DX divided by IC50 against LoVo; for IC50 ± SD LoVoDX / IC50: LoVo/DX, SRB, 72 h; for IC50: read-out: IC50 ± SD LoVoDX
Source text: as §1, §2, §3, §4
The resistance indexes (RI) were calculated by dividing the IC50 values of the compounds tested against the cells of drug resistant cell LoVo/DX line by respective values obtained against the cells of drug sensitive LoVo line (Table 2). According to Harker et al., three categories of the cells could be distinguished: (a) the cells are drug-sensitive if the ratio approaches 0–2; (b) the cells are moderately drug-resistant if the ratio ranges from 2 to 10; (c) the cells are markedly drug-resistant if the ratio is higher than 10.
as §6

[6] = MCF-10A normal cells, SRB, 72 h
[7] = Homo sapiens, MCF-10A normal cells, SRB, 72 h

IC50 ([1]; Homo sapiens, MV4-11, 72 h) | IC50 ([2]; Homo sapiens, MCF7, 72 h) | IC50 ([4]; Homo sapiens) | IC50 ([5]; Homo sapiens) | melting point [°C] | Compound | RI (resistance index) [5] | antiproliferative activity (in words) [1] | IC50 [3, 7] | also measured
36.6 µg/mL and 131 µM | – | – | – | 164 to 165 | Cc1nsc(Cl)c1C(=O)N/N=C/c1ccccc1 [Compound 8, 5-Chloro-N’-[(E)-phenylmethylidene]-3-methylisothiazole-4-carbohydrazide] | – | – | – | cytotoxicity against normal MCF-10A cells relative to cancer MCF-7 cells [3]: about three times less cytotoxic
> 80 µg/mL | – | – | – | 232 to 234 | Cc1ccc(/C=N/NC(=O)c2c(C)nsc2Cl)c(C)c1 [Compound 9, 5-Chloro-N’-[(E)-(2,4-dimethylphenyl)methylidene]-3-methylisothiazole-4-carbohydrazide] | – | very poor activity | – | inhibition at 80 µg/mL ([1]; Homo sapiens): 42.5%; cytotoxicity against normal MCF-10A cells relative to cancer MCF-7 cells [3]: about three times less cytotoxic
> 80 µg/mL | – | – | – | 226 to 228 | Cc1ccccc1/C=N/NC(=O)c1c(C)nsc1Cl [Compound 10, 5-Chloro-N’-[(E)-(2-methylphenyl)methylidene]-3-methylisothiazole-4-carbohydrazide] | – | very poor activity | – | inhibition at 80 µg/mL ([1]; Homo sapiens): 47%
– | – | – | – | 232 to 233 | Cc1nsc(Cl)c1C(=O)N/N=C/c1ccccc1Cl [Compound 11, 5-Chloro-N’-[(E)-(2-chlorophenyl)methylidene]-3-methylisothiazole-4-carbohydrazide] | – | no antiproliferative activity | – | –

Continued, compound first:

Compound | IC50 ([1]; Homo sapiens, MV4-11, 72 h) | IC50 ([2]; Homo sapiens, MCF7, 72 h) | IC50 ([4]; Homo sapiens) | IC50 ([5]; Homo sapiens) | melting point [°C] | RI (resistance index) [5] | antiproliferative activity (in words) [1] | IC50 [3, 7] | also measured
N.N.[Cl][Pt][Cl] [Cisplatin, reference compound] | – | – | – | – | – | 0.49 | – | – | IC50 [1]: 1.28 ± 0.45 µM; IC50 ± SD [1]: 0.38 ± 0.14 µg/mL; IC50 ± SD MCF-7 [2]: 1.56 ± 0.3 µg/mL; IC50 [2]: 5.2 ± 1 µM; IC50 ± SD MCF-10A [3, 6]: 2.9 ± 0.4 µg/mL; IC50 [3, 6]: 9.7 ± 1.4 µM; IC50 ± SD LoVo [4]: 1.7 ± 0.8 µg/mL; IC50 [4]: 5.6 ± 2.6 µM; IC50 ± SD LoVoDX [5]: 0.84 ± 0.17 µg/mL; IC50 [5]: 2.8 ± 0.6 µM
Cc1nsc(Cl)c1C(=O)O [Compound 1, 5-Chloro-3-methylisothiazole-4-carboxylic acid] | – | – | – | – | – | – | no antiproliferative activity; also recorded: devoid of any anticancer activity | – | –
Cc1nsc(Cl)c1C(=O)NN [Compound 2, 5-Chloro-3-Methylisothiazole-4-Carbohydrazide] | > 80 µg/mL | – | – | – | – | – | very poor activity; also recorded: devoid of any anticancer activity | – | inhibition at 80 µg/mL ([1]; Homo sapiens): 45%
Cc1nsc(Cl)c1C(=O)N/N=C/C=C/c1ccccc1 [Compound 3, 5-Chloro-N’-[(1E,2E)-3-phenylprop-2-en-1-ylidene]-3-methylisothiazole-4-carbohydrazide] | 4.4 µg/mL and 14 µM | 39.3 ± 6.3 µM | 25 ± 5.5 µM | 34.2 ± 2.3 µM | 180 to 181 | 1.37 | – | 20.9 µg/mL and 68.6 µM | IC50 ± SD [1]: 4.3 ± 1.9 µg/mL; IC50 ± SD MCF-7 [2]: 12 ± 1.9 µg/mL; activity (IC50 value) towards MCF-10A normal cell line relative to cancer cells ([3]; MCF-10A versus cancer cells): almost two times lower activity; IC50 ± SD LoVo [4]: 7.64 ± 1.7 µg/mL; IC50 ± SD LoVoDX [5]: 10.4 ± 0.7 µg/mL
Cc1nsc(Cl)c1C(=O)N/N=C/c1cccc(Cl)c1 [Compound 4, 5-Chloro-N’-[(E)-(3-chlorophenyl)methylidene]-3-methylisothiazole-4-carbohydrazide] | 15.2 µg/mL and 48.4 µM | 48.6 ± 5.7 µM | 59.4 ± 3.4 µM | 47.9 ± 3.7 µM | 174 to 175 | 0.81 | – | 24.6 µg/mL and 78.5 µM | IC50 ± SD MCF-7 [2]: 15.2 ± 1.8 µg/mL; IC50 ± SD LoVo [4]: 18.6 ± 1.1 µg/mL; IC50 ± SD LoVoDX [5]: 15 ± 1.1 µg/mL
Cc1nsc(Cl)c1C(=O)N/N=C/c1cccc([N+](=O)[O-])c1 [Compound 5, 5-Chloro-N’-[(E)-(3-nitrophenyl)methylidene]-3-methylisothiazole-4-carbohydrazide] | 18.7 µg/mL and 57.7 µM | 20.1 µg/mL and 65.1 µM | 22.7 µg/mL and 73.4 µM | 29.2 µg/mL and 94.6 µM | 199 to 200 | 1.29 | – | 60.8 µg/mL and 197 µM | cytotoxicity against normal MCF-10A cells relative to cancer MCF-7 cells [3]: about three times less cytotoxic
CCc1ccc(/C=N/NC(=O)c2c(C)nsc2Cl)cc1 [Compound 6, 5-Chloro-N’-[(E)-(4-ethylphenyl)methylidene]-3-methylisothiazole-4-carbohydrazide] | 21.3 µg/mL and 69.4 µM | 13.9 µg/mL and 42.9 µM | 31.7 µg/mL and 97.7 µM | 28.8 µg/mL and 88.8 µM | 152 to 154 | 0.91 | – | 40.6 µg/mL and 125 µM | –
COc1cccc(/C=N/NC(=O)c2c(C)nsc2Cl)c1 [Compound 7, 5-Chloro-N’-[(E)-(3-methoxyphenyl)methylidene]-3-methylisothiazole-4-carbohydrazide] | 22.4 µg/mL and 72.3 µM | 17.8 µg/mL and 58 µM | 27.8 µg/mL and 90.5 µM | 20 µg/mL and 65 µM | 139 to 140 | 0.72 | – | 56 µg/mL and 182 µM | antiproliferative activity relative to phenyl derivative 8 ([1]; fold higher than compound 8): 1.5–2 times
